In patent publication US6750253B1, “Aminobenzophenones as inhibitors of il-1β and tnf-α” (Leo Pharmaceutical Products Ltd. A/S, priority 1999, dated 2004):

Key:
Assay type in all cases: cell-based
TNF-α = assay: Inhibition of TNF-α secretion in LPS stimulated peripheral blood mononuclear cells; settings: PBMC; LPS stimulated human peripheral blood mononuclear cells, 18 hours, ELISA; read-out: The median inhibition concentration (IC50, nM) of TNF-α
Procedure: (§1) To study the effect of the compound of the present invention in vitro the inhibition of the IL-1β and TNF-α secretion was measured using the following procedure:
(§2) Cytokine production was measured in the media from lipopolysaccharide (LPS) stimulated peripheral blood mononuclear cells. The mononuclear cells were isolated from human. peripheral blood by Lymphoprep® (Nycomed, Norway) fractionation and suspended in RPMI 1640 (growth medium) with foetal calv serum (FCS, 2%), at a concentration of 5×10^5 cells/ml. The cells were incubated in 24-well tissue culture plates in 1 ml aliquots. Test compounds were dissolved in dimethylsulfoxide (DMSO, 10 mM) and were diluted with the medium. Compounds were added to the cells for 30 minutes, then LPS ([…] final concentration) was added. The plates were incubated for 18 hours, and the concentration of IL-1β and TNF-α in the medium was determined by enzyme-linked immunosorbent assays. The median inhibitory concentrations (IC50) of the compounds were calculated.

PMN-superoxide = assay: Inhibition of PMN superoxide secretion (ferricytochrome C reduction); settings: human PMN granulocytes primed with TNF-α, stimulated with fMLP; read-out: The median inhibition concentration (IC50, nM) of PMN-superoxide
Procedure: The compounds of the present invention also show similar activities in the ability to inhibit PMN (polymorphonuclear) superoxide secretion which is also indicative of potentially useful anti-inflammatory drugs The compounds were tested using the following procedure:
Human polymorphonuclear (PMN) granulocytes were Isolated from human blood by dextran sedimentation, Lymphoprep® fractionation and hypotonic lysis of contaminating erythrocytes.
Superoxide anion generation was measured as the superoxide dismutase inhibitable reduction of ferricytochrome C (Madhu, S. B. et al, Inflammation, 16 241, (1992)). The cells were suspended in Hanks' balanced salt solution, and incubated for 10 minutes at 37° C. with test compounds. The cells were primed by the addition of TNF-α (3 ng/ml final concentration) for 10 minutes, and then ferricytochrome C, (final concentration 750 μg/ml), bovine serum albumin (BSA, final concentration 1 mg/ml) and formyl-methionyl-leucyl-phenylalanine (fMLP, final concentration 10^−7 M) were added for 3 minutes. The cells were chilled on ice, and were spun down. The optical densities in the cell-free supernatant was measured in a spectrophotometer. The median Inhibitory concentration (IC50) of the compounds was calculated.

IL-1β = assay: Inhibition of IL-1β secretion in LPS stimulated peripheral blood mononuclear cells; settings: PBMC; LPS stimulated human peripheral blood mononuclear cells, 18 hours, ELISA; read-out: The median inhibition concentration (IC50, nM) of IL-1β
Procedure: as §1, §2

| IC50 (TNF-α) [nM] | IC50 (PMN-superoxide) [nM] | IC50 (IL-1β) [nM] | SMILES |
| --- | --- | --- | --- |
| 631 | 316 | > 1000 | CCNC(=O)Nc1ccccc1Nc1ccc(C(=O)c2ccccc2)cc1 [ref. b), 1-Ethyl-3-[2-(4-benzoyl-phenylamino)phenyl]urea, reference compound] |
| 3.2 | 4 | 7.9 | CCNC(=O)Nc1cc(F)ccc1Nc1ccc(C(=O)c2ccccc2C)c(Cl)c1 [Compound 114, 1-Ethyl-3-[2-[3-chloro-4-(2-methylbenzoyl)-phenylamino]-5-fluoro-phenyl]urea] |
| 2.2 | 13 | 22 | CCNC(=O)Nc1ccccc1Nc1ccc(C(=O)c2ccccc2C)c(Cl)c1 [Compound 102, 1-Ethyl-3-[2-[3-chloro-4-(2-methylbenzoyl)-phenylamino]phenyl]urea] |
| 5 | 4 | 13 | Cc1ccccc1C(=O)c1ccc(Nc2ccccc2NC(=O)NC2CCCCC2)cc1Cl [Compound 101, 1-Cyclohexyl-3-[2-[3-chloro-4-(2-methylbenzoyl)-phenylamino]phenyl]urea] |
